Test results published in patent US20230131025A1, “QUINOLYL PHOSPHINE OXIDE COMPOUND, AND COMPOSITION AND APPLICATION THEREOF” (Betta Pharmaceuticals Co., Ltd., priority 2020, published 2023).
pIC50: −log10 of the molar value.

How the values were obtained:
[1] = target: EGFR WT (Homo sapiens, UniProt P00533); experiment: Kinase inhibition assay (mobility shift); type: biochemical
Summary of the method: (§1)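 Caliper mobility-shift read of substrate conversion after kinase-compound preincubation 10 min at room temperature, then ATP/substrate addition and reaction at room temperature. Ten-point 3-fold dilutions from 3,000 or 100 nM top; IC50 from variable-slope four-parameter fit of percent inhibition.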

[2] = target: EGFR Δ19del/T790M/C797S (Homo sapiens, UniProt P00533, T790M/C797S, form not given); experiment: Kinase inhibition assay (mobility shift); type: biochemical
EGFR Δ19del/T790M/C797S, sequence (P00533 with tags, fused parts or gaps DEL746-750/T790M/C797S, form open): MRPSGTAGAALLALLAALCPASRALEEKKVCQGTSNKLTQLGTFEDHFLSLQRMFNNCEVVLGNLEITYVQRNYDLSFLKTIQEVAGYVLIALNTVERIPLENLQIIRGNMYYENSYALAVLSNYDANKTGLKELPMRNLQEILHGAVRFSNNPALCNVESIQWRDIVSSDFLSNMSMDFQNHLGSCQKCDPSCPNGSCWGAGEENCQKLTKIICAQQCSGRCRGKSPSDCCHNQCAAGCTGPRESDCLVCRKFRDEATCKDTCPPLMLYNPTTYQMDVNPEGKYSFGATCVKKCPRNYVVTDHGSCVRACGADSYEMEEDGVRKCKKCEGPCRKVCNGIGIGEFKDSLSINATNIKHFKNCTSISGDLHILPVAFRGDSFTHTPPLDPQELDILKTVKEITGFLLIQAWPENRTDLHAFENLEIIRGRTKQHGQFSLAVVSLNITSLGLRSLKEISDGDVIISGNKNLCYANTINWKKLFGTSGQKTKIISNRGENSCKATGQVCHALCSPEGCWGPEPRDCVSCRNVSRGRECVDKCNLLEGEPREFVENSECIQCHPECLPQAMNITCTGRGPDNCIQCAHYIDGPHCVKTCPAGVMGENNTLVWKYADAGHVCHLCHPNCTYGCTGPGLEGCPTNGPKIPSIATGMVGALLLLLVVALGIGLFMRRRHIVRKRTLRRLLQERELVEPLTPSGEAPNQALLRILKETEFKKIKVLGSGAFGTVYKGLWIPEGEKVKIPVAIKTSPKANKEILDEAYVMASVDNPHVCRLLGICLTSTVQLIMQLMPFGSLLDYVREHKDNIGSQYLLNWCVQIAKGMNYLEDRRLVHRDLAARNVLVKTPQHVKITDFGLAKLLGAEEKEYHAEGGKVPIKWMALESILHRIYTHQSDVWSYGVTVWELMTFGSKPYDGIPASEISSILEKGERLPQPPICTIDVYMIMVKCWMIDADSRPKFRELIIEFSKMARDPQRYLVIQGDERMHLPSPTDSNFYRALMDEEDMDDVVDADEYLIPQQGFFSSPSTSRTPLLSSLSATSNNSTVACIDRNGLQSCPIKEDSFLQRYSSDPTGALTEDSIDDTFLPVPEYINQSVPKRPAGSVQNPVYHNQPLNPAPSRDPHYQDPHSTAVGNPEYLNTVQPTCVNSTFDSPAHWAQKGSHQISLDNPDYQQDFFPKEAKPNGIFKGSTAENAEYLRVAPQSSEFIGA
Summary of the method: as §1

[3] = target: IGF1R (Homo sapiens, UniProt P08069); experiment: Kinase inhibition assay (mobility shift); type: biochemical
Summary of the method: as §1

[4] = target: Ba/F3 EGFR WT (Homo sapiens, UniProt P00533); experiment: Cell proliferation experiment (CellTiter Glo, 72 hours); type: cell-based; conditions: for GI50: read-out: BaF3 EGFR WT IC50
Ba/F3 EGFR WT, sequence (P00533 whole entry, stated change not applied): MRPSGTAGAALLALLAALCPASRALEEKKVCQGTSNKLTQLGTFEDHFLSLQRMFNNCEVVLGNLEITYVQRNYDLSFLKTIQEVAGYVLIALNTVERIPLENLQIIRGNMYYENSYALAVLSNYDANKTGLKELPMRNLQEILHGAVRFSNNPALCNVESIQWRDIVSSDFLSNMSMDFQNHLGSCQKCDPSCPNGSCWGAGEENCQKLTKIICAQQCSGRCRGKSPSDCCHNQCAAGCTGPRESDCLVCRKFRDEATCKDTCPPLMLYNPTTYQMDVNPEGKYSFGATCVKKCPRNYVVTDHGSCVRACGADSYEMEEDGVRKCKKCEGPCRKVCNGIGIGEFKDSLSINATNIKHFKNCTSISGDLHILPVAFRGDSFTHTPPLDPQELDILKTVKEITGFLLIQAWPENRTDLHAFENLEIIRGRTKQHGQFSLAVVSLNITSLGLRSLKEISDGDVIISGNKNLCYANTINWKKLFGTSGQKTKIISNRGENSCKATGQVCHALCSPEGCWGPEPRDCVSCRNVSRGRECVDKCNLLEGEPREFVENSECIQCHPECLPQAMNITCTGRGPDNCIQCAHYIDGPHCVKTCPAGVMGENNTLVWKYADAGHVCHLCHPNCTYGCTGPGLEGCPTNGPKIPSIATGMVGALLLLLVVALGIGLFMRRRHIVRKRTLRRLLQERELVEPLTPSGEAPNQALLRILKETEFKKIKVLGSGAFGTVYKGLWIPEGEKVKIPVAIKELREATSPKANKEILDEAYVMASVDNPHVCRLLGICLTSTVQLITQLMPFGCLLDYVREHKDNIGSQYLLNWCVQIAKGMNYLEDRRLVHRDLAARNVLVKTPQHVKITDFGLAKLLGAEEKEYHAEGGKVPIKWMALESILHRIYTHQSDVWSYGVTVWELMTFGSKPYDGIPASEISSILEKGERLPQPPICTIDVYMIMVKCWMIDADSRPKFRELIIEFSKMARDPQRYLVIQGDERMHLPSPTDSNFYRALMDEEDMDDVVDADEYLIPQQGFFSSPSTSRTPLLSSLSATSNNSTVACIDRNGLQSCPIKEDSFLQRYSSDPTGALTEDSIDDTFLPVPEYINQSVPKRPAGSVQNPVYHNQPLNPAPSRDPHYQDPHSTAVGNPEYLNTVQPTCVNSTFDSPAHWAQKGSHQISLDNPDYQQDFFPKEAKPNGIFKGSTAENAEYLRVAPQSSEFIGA
Summary of the method: (§2)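 Ba/F3 cells overexpressing EGFR Δ19del/T790M/C797S or EGFR WT were seeded at 2000 or 3000 cells/well and exposed 72 h to 9 compound concentrations (3-fold, top 10000 or 1111 nM final, 0.1% DMSO). CellTiter-Glo luminescence gave survival inhibition versus controls; IC50 from nonlinear fit.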

[5] = target: Ba/F3-Δ19del/T790M/C797S (Homo sapiens, UniProt P00533, T790M/C797S, cells depend on it, form not given); experiment: as above; type: cell-based; conditions: for GI50: read-out: Ba/F3/EGFR Δ19del/T790M/C797S IC50
Ba/F3-Δ19del/T790M/C797S, sequence (P00533 with tags, fused parts or gaps DEL746-750/T790M/C797S, form open): as the sequence (P00533 with tags, fused parts or gaps DEL746-750/T790M/C797S, form open) above
Summary of the method: as §2

[6] = test system: human epidermal cancer cells A431 carrying EGFR WT; experiment: as above; type: cell-based; conditions: for pIC50: Homo sapiens, A-431
Summary of the method: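 Cells seeded at 2000 or 3000/well and exposed 72 h to 9-point 3-fold dilutions, top final 10000 nM or 1111 nM, 0.1% DMSO. Viability by CellTiter-Glo luminescence. Inhibition relative to cell and medium controls; IC50 by four-parameter nonlinear regression.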

[7] = In vivo efficacy data of Comparative example 1 cited from WO2019/015655A1, TGI and ED50 calculated; conditions: nonlinear fitting of dosage vs TGI calculated from cited data, FIG. 1
Method: Moreover, the data of Comparative example 1 (in the patent WO2019/015655A1) was cited in Table 4, and the TGI of each administration group was calculated. Nonlinear fitting was performed according to the administrating dosage and the tumor growth inhibition rate TGI (%) corresponding to each dosage using GraphPad Prism 8. The fitting formula is as follows and its ED50 (half effective dose) was calculated: Y=Bottom+(Top-Bottom)/(1+10^((Log ED50−X)*HillSlope)).
TGI was calculated according to the administration dosage and tumor growth volume of Comparative example 1. Nonlinear fitting was performed on the administration dosage and corresponding TGI (%). […] It can be seen that the half effective dose of compound J-022, which is 10 mg/kg/day, is equivalent to that of Comparative example 1.

[8] = In vivo safety experiment (body weight, tolerance); conditions: for Mortality of mice / Body weight of mouse: 75 mg/kg/day oral QD; for Mortality of mice: 7 consecutive days, 5 mice
Method: The safety evaluation of the drug was carried out in BALB/c nude mice. […] They were fed in an SPF environment, and each cage was individually ventilated (5 mice per cage). All cages, bedding and water were disinfected prior to use. Mice were purchased from Viton Lever and were allowed to acclimate in the laboratory. Mice were administered orally QD.

EGFR WT, sequence (P00533 25-1210): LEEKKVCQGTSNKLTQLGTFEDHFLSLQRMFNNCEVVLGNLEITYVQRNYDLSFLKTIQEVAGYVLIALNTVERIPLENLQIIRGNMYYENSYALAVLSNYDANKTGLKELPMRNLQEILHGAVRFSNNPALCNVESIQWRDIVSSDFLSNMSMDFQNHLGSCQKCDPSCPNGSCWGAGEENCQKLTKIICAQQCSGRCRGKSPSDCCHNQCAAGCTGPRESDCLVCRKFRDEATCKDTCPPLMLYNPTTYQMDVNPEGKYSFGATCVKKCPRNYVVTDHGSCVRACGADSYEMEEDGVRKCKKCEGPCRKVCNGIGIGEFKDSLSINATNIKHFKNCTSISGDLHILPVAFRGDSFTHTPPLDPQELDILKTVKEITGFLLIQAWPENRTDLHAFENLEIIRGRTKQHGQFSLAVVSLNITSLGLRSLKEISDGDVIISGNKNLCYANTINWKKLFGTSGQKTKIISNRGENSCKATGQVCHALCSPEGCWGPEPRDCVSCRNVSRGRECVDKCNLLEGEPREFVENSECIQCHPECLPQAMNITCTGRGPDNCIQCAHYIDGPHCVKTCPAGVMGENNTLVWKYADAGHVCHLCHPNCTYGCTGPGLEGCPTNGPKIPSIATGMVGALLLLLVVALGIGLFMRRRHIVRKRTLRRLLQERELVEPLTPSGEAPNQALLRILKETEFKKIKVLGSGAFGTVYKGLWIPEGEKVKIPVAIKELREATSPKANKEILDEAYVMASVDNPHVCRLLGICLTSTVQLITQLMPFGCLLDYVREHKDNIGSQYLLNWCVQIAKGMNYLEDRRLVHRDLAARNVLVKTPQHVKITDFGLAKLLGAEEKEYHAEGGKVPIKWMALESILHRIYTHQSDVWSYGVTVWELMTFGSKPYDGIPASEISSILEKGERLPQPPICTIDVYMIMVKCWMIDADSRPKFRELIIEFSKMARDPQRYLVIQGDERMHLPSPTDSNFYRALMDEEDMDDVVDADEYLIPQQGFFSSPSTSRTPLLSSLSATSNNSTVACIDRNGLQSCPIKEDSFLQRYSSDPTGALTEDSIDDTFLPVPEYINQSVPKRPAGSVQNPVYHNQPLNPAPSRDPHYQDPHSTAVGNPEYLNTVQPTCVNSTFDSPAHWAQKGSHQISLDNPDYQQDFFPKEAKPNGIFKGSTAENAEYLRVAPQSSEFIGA

Row | Structure (SMILES) | EGFR WT IC50 [1] | pIC50 [1] | EGFR Δ19del/T790M/C797S IC50 [2] | pIC50 [3] | IGF1R IC50 [3] | BaF3 EGFR WT IC50 [4] | GI50 [4] [nM] | Ba/F3/EGFR Δ19del/T790M/C797S IC50 [5] | GI50 [5] [nM] | A431 IC50 [6] | half effective dose ED50 (dosage at TGI 50%) [7] [mg/kg/day] | Mortality of mice [8] | Mortality of mice ([8]; listed as Comparative example 1) | Body weight of mouse ([8]; 2 days) | Body weight of mouse ([8]; 4 days) | window from the effective dose to the intolerance dose ([8]; effective dose = dose corresponding to 50% TGI) | pIC50 [2] | pIC50 [6]
1 | CCc1cc(Nc2ncc(Br)c(Nc3ccc4nccnc4c3P(C)(C)=O)n2)c(OC)cc1N1CCC(N2CCN(C)CC2)CC1 [Comparable example 1, reference compound] | strong inhibitory activity | 8.29 | strong inhibitory effect | 8.02 | strong inhibitory activity | strong inhibitory effect | 39.9 | strong inhibitory effect | 9 | certain inhibitory effect | 8.7 | all the 5 mice died on the 6th day | all mice died of intolerance | began to decrease | decreased significantly | less than 8.6 times | – | –
2 | COc1cc(N2CCN(C)CC2)c(C#N)cc1Nc1ncc(Br)c(Nc2ccc3nc(C4CC4)ccc3c2P(C)(C)=O)n1 [Compound J-012, 5-((5-Bromo-4-((2-cyclopropyl-5-(dimethylphosphineoxide)quinolin-6-yl)amino)pyrimidin-2-yl)amino)-4-methoxy-2-(4-methylpiperazin-1-yl)benzonitrile] | – | 7.36 | – | 6.55 | – | – | 130 | – | 3.4 | – | – | – | – | – | – | – | 9.70 | 6.08
3 | CCc1cc(Nc2ncc(Br)c(Nc3ccc4nc(C#N)ccc4c3P(C)(C)=O)n2)c(OC)cc1N1CCC(N2CCN(C)CC2)CC1 [Compound J-016, 6-((5-Bromo-2-((5-ethyl-2-methoxy-4-(4-(4-methylpiperazin-1-yl)piperidin-1-yl)phenyl)amino)pyrimidin-4-yl)amino)-5-(dimethylphosphineoxide)quinoline-2-formonitrile] | – | 8.34 | – | 7.77 | – | – | 132 | – | 5.1 | – | – | – | – | – | – | – | 9.52 | 6.42
